{
  "source": "patent US12415806B1",
  "about": "“Solid state forms” (AMGEN INC., priority 2019, dated 2025)",
  "key": {"[1]": {"assay": "Solubility assessment", "format": "physicochemical", "source_text": "(§1) Within the pharmaceutical research and development field, the investigation of a suitable solid-state form represents a crucial step. Investigating a solid-state form comprises several decisions, mainly the investigation of an anhydrous, salt or co-crystal form and the investigation of a polymorph of the respective anhydrous, salt or co-crystal. During a lead optimization program, several properties of research compounds are optimized, typically leading to one or a few candidates that continue into exploratory development programs. Typically, in the assessment and optimization of physical chemical parameters during lead optimization, the main focus is on solubility. […] Beyond the optimization of solubility, further physical chemical parameters, such as (1) melting point, (2) thermal behavior, (3) hygroscopicity, (4) crystal habit, (5) polymorphic behavior or physical stability, (6) impurity profile, and (7) chemical stability of the anhydrous or salt form, must be borne in mind when investigating the salt. The melting point of a drug, either as a free base, acid or salt form, should be higher than a certain threshold to allow processing steps such as drying or tabletting. The assessment of thermal behavior, which is typically done by thermogravimetry (TGA) and differential scanning calorimetry (DSC), also includes solid-solid phase transitions. […]"}, "[2]": {"system": "KRAS^G12C tumors", "conditions": "preclinical analyses, combination; cited from earlier work"}, "[3]": {"system": "KRAS^G12C tumors", "conditions": "alone as well as in combination with immune-checkpoint inhibitors; cited from earlier work"}, "[4]": {"system": "tumors", "conditions": "first dosing cohorts; cited from earlier work"}, "[5]": {"assay": "Excipient compatibility study in 3 prototype blends", "format": "physicochemical", "conditions": "3 prototype blends stored for 4 weeks at 40° C./75% RH", "procedure": "(§2) Furthermore, crystalline anhydrous Form I was stable in an excipient compatibility study in 3 prototype blends that were stored for 4 weeks at 40° C./75% RH. Crystalline anhydrous Form I was also stable to ultraviolet and visible light in the solid state."}, "[6]": {"assay": "Polymorph conversion upon heating or slurrying (thermodynamic stability of forms)", "format": "physicochemical", "procedure": "Solutions of the compounds of the disclosure were prepared by adding enough solids to a given solvent so that excess solids were present. All forms described below can be obtained from various solvents, including, but not limited, to the specific solvents described in the Examples. The mixture was then agitated in a sealed vial at either ambient or elevated temperature. After a given amount of time, the solids were isolated by vacuum or centrifuge filtration and analyzed.\nThe crystalline anhydrous Form II and III described herein below convert to crystalline anhydrous Form I upon heating or slurrying.\nCrystalline anhydrous Form III melts at 180° C."}, "[7]": {"assay": "Solid state physical and chemical stability on storage (HPLC, XRPD, DSC, TGA)", "format": "physicochemical", "conditions": "14 weeks at 25° C./60% RH, 40° C./75% RH, 40° C./ambient RH, and 60° C./ambient RH"}, "[8]": {"assay": "Hygroscopicity (moisture uptake versus relative humidity)", "format": "physicochemical", "source_text": "as §1, with “transitions. These may be either enantiotropic or monotropic and can be related to the conversion of one polymorph to another or one pseudo-polymorph to another pseudo-polymorph—e.g. a lower solvate or hydrate—or a true polymorph. Hygroscopicity plays a key role in the evaluation of solid-state forms, as this property is highly relevant for many process steps such as drying, storage, blending, granulation, to name but a few. Hygroscopicity can be investigated by dynamic vapor sorption (DVS). Basically, this technique yields information on the amount of moisture that is taken up by the compound at a certain relative humidity level.” for “transitions.”"}, "[9]": {"assay": "Stability to ultraviolet and visible light in the solid state", "format": "physicochemical", "procedure": "as §2"}},
  "data": [
    {"smiles": "C=CC(=O)N1CCN(c2nc(=O)n(-c3c(C)ccnc3C(C)C)c3nc(-c4c(O)cccc4F)c(F)cc23)[C@@H](C)C1", "note": "(atropisomer, axis not shown) [Compound 1, 6-fluoro-7-(2-fluoro-6-hydroxyphenyl)-1-(4-methyl-2-(2-propanyl)-3-pyridinyl)-4-((2S)-2-methyl-4-(2-propenoyl)-1-piperazinyl)pyrido[2,3-d]pyrimidin-2 (1H)-one]", "values": [
      {"measurement": "solubility", "setting": "[1]", "value": "good solubility features"}
    ]},
    {"smiles": "C=CC(=O)N1CCN(c2nc(=O)n(-c3c(C)ccnc3C(C)C)c3nc(-c4c(O)cccc4F)c(F)cc23)[C@@H](C)C1", "note": "[Compound 1, 6-fluoro-7-(2-fluoro-6-hydroxyphenyl)-1-(4-methyl-2-(2-propanyl)-3-pyridinyl)-4-((2S)-2-methyl-4-(2-propenoyl)-1-piperazinyl)pyrido[2,3-d]pyrimidin-2 (1H)-one]", "values": [
      {"measurement": "effect on anti-tumor efficacy of chemotherapy and targeted agents", "setting": "[2]", "value": "improved the anti-tumor efficacy of chemotherapy and targeted agents"},
      {"measurement": "tumor outcome in immune-competent mice", "setting": "[3]", "value": "produced durable cures"},
      {"measurement": "anti-tumor activity in clinical trials", "setting": "[4]", "value": "demonstrated anti-tumor activity"}
    ]},
    {"smiles": "C=CC(=O)N1CCN(c2nc(=O)n(-c3c(C)ccnc3C(C)C)c3nc(-c4c(O)cccc4F)c(F)cc23)[C@@H](C)C1", "note": "[Form I, 6-fluoro-7-(2-fluoro-6-hydroxyphenyl)-1-(4-methyl-2-(2-propanyl)-3-pyridinyl)-4-((2S)-2-methyl-4-(2-propenoyl)-1-piperazinyl)pyrido[2,3-d]pyrimidin-2 (1H)-one]", "values": [
      {"measurement": "stability in excipient compatibility study", "setting": "[5]", "value": "stable"},
      {"measurement": "thermodynamic stability among polymorphs identified in the screening process", "setting": "[6]; polymorph and salt screen", "value": "most thermodynamically stable polymorph"},
      {"measurement": "physical and chemical stability in the solid state (no degradation peaks by HPLC, no changes in XRPD, DSC, TGA)", "setting": "[7]", "value": "physically and chemically stable"},
      {"measurement": "moisture absorbed", "setting": "[8]; between 0 and 90% RH at 25° C.", "value": "0.5-1.0 % wt"},
      {"measurement": "stability to ultraviolet and visible light", "setting": "[9]", "value": "stable"}
    ]},
    {"smiles": "C=CC(=O)N1CCN(c2nc(=O)n(-c3c(C)ccnc3C(C)C)c3nc(-c4c(O)cccc4F)c(F)cc23)[C@@H](C)C1", "note": "[Form II, 6-fluoro-7-(2-fluoro-6-hydroxyphenyl)-1-(4-methyl-2-(2-propanyl)-3-pyridinyl)-4-((2S)-2-methyl-4-(2-propenoyl)-1-piperazinyl)pyrido[2,3-d]pyrimidin-2 (1H)-one]", "values": [
      {"measurement": "form conversion", "setting": "[6]; slurrying in water at 90° C. for 1 hour", "value": "converts to crystalline anhydrous Form I"},
      {"measurement": "form conversion", "setting": "[6]; upon heating and recrystallization at 193° C.", "value": "converts to crystalline anhydrous Form I"},
      {"measurement": "moisture absorbed", "setting": "[8]; between 0 and 90% RH at 25° C.", "value": "2-2.5 % wt"}
    ]},
    {"smiles": "C=CC(=O)N1CCN(c2nc(=O)n(-c3c(C)ccnc3C(C)C)c3nc(-c4c(O)cccc4F)c(F)cc23)[C@@H](C)C1", "note": "[Form III, 6-fluoro-7-(2-fluoro-6-hydroxyphenyl)-1-(4-methyl-2-(2-propanyl)-3-pyridinyl)-4-((2S)-2-methyl-4-(2-propenoyl)-1-piperazinyl)pyrido[2,3-d]pyrimidin-2 (1H)-one]", "values": [
      {"measurement": "form conversion", "setting": "[6]; upon melting and recrystallization at 220° C.", "value": "converts to crystalline anhydrous Form I"},
      {"measurement": "moisture absorbed", "setting": "[8]; between 0-95% RH at 25° C.", "value": 7.0, "unit": "% wt"}
    ]}
  ]
}
